Reference: patent publication US20180125993A1 (BEIJING COTIMES BIOTECH COMPANY LIMITED, priority 2014, published 2018)
Marks after values point to notes of the source that are not given here.

Columns and labels:
[1] = test system: A549; experiment: In vitro cytotoxic sensitivity of CTB006; type: cell-based, human; conditions: A549, Lung cancer
[2] = test system: lung cancer, CS225, 1#; experiment: Patients primary tumor tissue subcutaneous model (Day 37 after treatment); type: in vivo, nude mice; conditions: HuCTB006 10 mg/kg i.v. QW × 5w
Excerpt: Fresh primary tumor tissues from patients were implanted in NOD/SCID mice's flank, which developed into a primary tumor, which was then transferred to the nude mice's flank to allow the tumor reaching an exponential growth phase, and the tumor was named 1# tumor, and so on. When the tumor volume and number reached passage requirements, they were implanted into the right flank of nude mice. When the tumors' average volumes reached 100-200 mm^3, the mice were grouped.
The bodyweight and major/minor axis of mice were measured twice a week, and Tumor Growth Inhibition (TGI) and tumor volume were calculated same as in 5.1.5. In addition, to evaluate the synergetic effect of drug combination in tumor growth, Jin Zhengjun Q value judgment method was used with the follow formula: Q=Ea+b/(Ea+Eb−Ea×Eb). Ea+b is the inhibition ratio of drug combination, Ea and Eb are the inhibition ratio of each of drug treatment when it is administered alone. […] The animals were monitored, and when the experiments were concluded, mice were sacrificed and tumors were extracted and weighted. All the animal experiments confer to the regulations of animal's welfare and the management of experimental animal usage.
Tumor volumes were represented with average±standard error. Data analysis was done using Spss16.0, One-Way ANOVA, LSD (homogeneity of variance) or Dunnett T3 (non-homogeneity of variance). […] P<0.05 represents significant difference.

[3] = test system: H460; experiment: In vitro cytotoxic sensitivity of CTB006; type: cell-based, human; conditions: H460, Lung cancer
[4] = test system: MDA-MB-361; experiment: In vitro cytotoxic sensitivity of CTB006; type: cell-based, human; conditions: MDA-MB-361, Breast cancer
[5] = test system: SK-Hep-1; experiment: Cytotoxicity on human tumor cell lines (ATPLite Assay Kit); type: cell-based; conditions: SK-Hep-1, Liver cancer
Experimental: (§1) Eighteen human tumor cell lines were treated with 62.5, 125, 250, 500, or 1000 ng/mL HuCTB006 or different concentrations of chemotherapy drugs, which act as positive controls. […] The culture medium for SK-Hep-1, HepG2, HCT116, SW480, WiDr (1×NEAA), MIA-PaCa-2 (2.5% Horse serum) MDA-MB-231 (1 mM NaPyr, 1×MEM-NEAA, 1×MEM VITAMIN) was DMEM. The culture medium for COLO205, BXPC3 (2 mM glutamin, 10 mM HEPES), Panc2.03 (15FBS, 1 mM NaPyr, 1×MEM-NEAA, […], 10 mM HEPES), H2122, OVCAR3 (1 mM NaPyr, 10 ug/ml human insulin, 10 mM HEPES, 2.5 g/L glucose), Molt-4 (HEPES, 2.5 g/l glocose), Jurkat (HEPES, 2.5 g/l glocose) was RPMI-1640, the culture medium for SK-MES-1 was Eagle's MEM, the culture medium for 2-LMP and DY36T2 was IMEM, and the culture medium for SUM102 (5 ug/ml insulin) was F-12K. The cell viability was determined by ATPLite Assay Kit. If the IC50 value was lower than 62.5 ng/mL, the cells were treated with higher concentration of CTB006 in the second round of experiments to determine IC50 value.

[6] = test system: H2122; experiment: as above; type: cell-based; conditions: H2122, Lung cancer
Experimental: as §1

[7] = test system: HCT116; experiment: as above; type: cell-based; conditions: HCT116, Colorectal cancer
Experimental: as §1

[8] = test system: BXPC3; experiment: as above; type: cell-based; conditions: BXPC3, Pancreatic cancer
Experimental: as §1

[9] = test system: COLO205; experiment: as above; type: cell-based; conditions: COLO205, Colorectal cancer
Experimental: as §1

[10] = test system: MDA-MB-231; experiment: as above; type: cell-based; conditions: MDA-MB-231, Breast cancer
Experimental: as §1

[11] = test system: SW480; experiment: as above; type: cell-based; conditions: SW480, Colorectal cancer
Experimental: as §1

[12] = test system: SK-MES-1; experiment: as above; type: cell-based; conditions: SK-MES-1, Lung cancer
Experimental: as §1

[13] = test system: WiDr; experiment: Human colon cancer Widr subcutaneous model (Day 27 after treatment); type: in vivo, nude mice
Experimental: Tumor cells (i.e., MIA-PaCa-2, WiDr, H2122, colo205) were inoculated in nude mice's flank at 5×10^6 cells per mouse. The mice were grouped when the average volume of tumors reached about 100˜200 mm^3. “QW”=weekly dose. “Q3d”=dosed every third day. “BiW”=biweekly.
The bodyweight and major/minor axis of the mice were measured twice a week, and the tumor volumes were calculated using the formula: Tumor volume=1/2×major axis[…]. […] “T” represents average tumor volume of the experimental group (cm^3), and “C” represents average tumor volume of the control group (cm^3). The animals were monitored at all times. The bodyweight and major/minor axis or mice were measured twice a week.
Tumor volumes were represented with average±standard error. […] P<0.05 represents significant difference.

[14] = HuCTB006 0.07 mg/kg i.v. QW × 4W
[15] = HuCTB006 0.07 mg/kg i.v. QW × 4W, 0.07 mg/kg
[16] = HuCTB006 0.07 mg/kg i.v. QW × 4W, listed as HUCTB006, 0.07 mg/kg
[17] = HuCTB006 0.22 mg/kg i.v. QW × 4W
[18] = HuCTB006 0.22 mg/kg i.v. QW × 4W, 0.22 mg/kg
[19] = HuCTB006 0.22 mg/kg i.v. QW × 4W, listed as HUCTB006, 0.22 mg/kg
[20] = HuCTB006 0.67 mg/kg i.v. QW × 4W
[21] = HuCTB006 0.67 mg/kg i.v. QW × 4W, 0.67 mg/kg
[22] = HuCTB006 0.67 mg/kg i.v. QW × 4W, listed as HUCTB006, 0.67 mg/kg
[23] = HuCTB006 2 mg/kg i.v. QW × 4W, 2 mg/kg
[24] = HuCTB006 2 mg/kg i.v. QW × 4W, listed as HUCTB006, 2 mg/kg
[25] = repeated experiment, HuCTB006 0.07 mg/kg
[26] = repeated experiment, HuCTB006 0.22 mg/kg
[27] = repeated experiment, HuCTB006 0.67 mg/kg
[28] = repeated experiment, HuCTB006 2 mg/kg

Substance: HuCTB006: Monospecific humanized chimeric monoclonal antibody directed to TRAIL-R2 receptor; heavy chain SEQ ID NO: 14, light chain SEQ ID NO: 12
- In vitro cytotoxic sensitivity of CTB006 [1]: Non-responder
- T/C % (Calculated using tumor volumes) [2]: 79.86%
- Time of tumor volume changed significantly [2]: 16
- Tumor Volume Mean ± SEM [2]: 0.86 ± 0.19 cm^3
- Tumor weight Mean ± SEM [2]: 0.89 ± 0.23 g
- TGI (Calculated using tumor volumes) ([2]; 10 mg/kg): 19.65%
- TGI (Calculated using tumor weight) ([2]; 10 mg/kg): −25.23%
- In vitro cytotoxic sensitivity of CTB006 [3]: Partial-responder
- In vitro cytotoxic sensitivity of CTB006 [4]: Non-responder
- In vitro cytotoxic sensitivity of CTB006 [5]: Partial-responder
- In vitro cytotoxic sensitivity of CTB006 [6]: Responder
- In vitro cytotoxic sensitivity of CTB006 [7]: Responder
- In vitro cytotoxic sensitivity of CTB006 [8]: Responder
- In vitro cytotoxic sensitivity of CTB006 [9]: Responder
- In vitro cytotoxic sensitivity of CTB006 [10]: Responder
- In vitro cytotoxic sensitivity of CTB006 [11]: Partial-responder
- In vitro cytotoxic sensitivity of CTB006 [12]: Responder
- T/C % (Calculated using tumor volume) [13, 14]: 90.16%
- Time of tumor volume changed significantly [13, 14]: 7
- Tumor Volume Mean ± SEM [13, 14]: 1.76 ± 0.18 cm^3
- Tumor weight Mean ± SEM [13, 14]: 1.29 ± 0.18 g
- TGI (Calculated using tumor volume) [13, 15]: 6.61%
- TGI (Calculated using tumor weight) [13, 15]: 11.99%
- TGI (Calculated using tumor volume) [13, 16]: 6.61% ^1
- TGI (Calculated using tumor weight) [13, 16]: 11.99%
- T/C % (Calculated using tumor volume) [13, 17]: 81.49%
- Time of tumor volume changed significantly [13, 17]: 7
- Tumor Volume Mean ± SEM [13, 17]: 1.54 ± 0.18 cm^3
- Tumor weight Mean ± SEM [13, 17]: 1.16 ± 0.13 g
- TGI (Calculated using tumor volume) [13, 18]: 18.71%
- TGI (Calculated using tumor weight) [13, 18]: 21.13%
- TGI (Calculated using tumor volume) [13, 19]: 18.71% ^ac
- TGI (Calculated using tumor weight) [13, 19]: 21.13%
- T/C % (Calculated using tumor volume) [13, 20]: 49.54%
- Time of tumor volume changed significantly [13, 20]: 11
- Tumor Volume Mean ± SEM [13, 20]: 0.96 ± 0.10 cm^3
- Tumor weight Mean ± SEM [13, 20]: 0.68 ± 0.08 g
- TGI (Calculated using tumor volume) [13, 21]: 49.42%
- TGI (Calculated using tumor weight) [13, 21]: 53.48%
- TGI (Calculated using tumor volume) [13, 22]: 49.42% ^abc
- TGI (Calculated using tumor weight) [13, 22]: 53.48% ^a
- T/C % (Calculated using tumor volume) ([13]; HuCTB006 2 mg/kg i.v. QW × 4W): 42.17%
- Time of tumor volume changed significantly ([13]; HuCTB006 2 mg/kg i.v. QW × 4W): 14
- Tumor Volume Mean ± SEM ([13]; HuCTB006 2 mg/kg i.v. QW × 4W): 0.80 ± 0.11 cm^3
- Tumor weight Mean ± SEM ([13]; HuCTB006 2 mg/kg i.v. QW × 4W): 0.53 ± 0.08 g
- TGI (Calculated using tumor volume) [13, 23]: 57.34%
- TGI (Calculated using tumor weight) [13, 23]: 63.81%
- TGI (Calculated using tumor volume) [13, 24]: 57.34% ^abc
- TGI (Calculated using tumor weight) [13, 24]: 63.81% ^a
- TGI (Calculated using tumor volume) [13, 25]: 36.21%
- TGI (Calculated using tumor weight) [13, 25]: 39.94%
- TGI (Calculated using tumor volume) [13, 26]: 54.98%
- TGI (Calculated using tumor weight) [13, 26]: 57.56%
- TGI (Calculated using tumor volume) [13, 27]: 53.73%
- TGI (Calculated using tumor weight) [13, 27]: 49.85%
- TGI (Calculated using tumor volume) [13, 28]: 53.77%
- TGI (Calculated using tumor weight) [13, 28]: 53.75%
